Among the test systems are ACHN renal; COLO 205 colon; HCC-2998 colon; M14 melanoma; MALME-3M melanoma; MCF7 breast; OVCAR-4 ovarian; SF-268 CNS; UO-31 renal; K-562 leukemia.
Assay in all cases: inhibition of tumour cell growth, NCI panel, 48 h

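Five compound concentrations were applied to cells in 96-well plates for 48 hours; endpoints were derived by simple linear interpolation of the resulting dose-response curve. GI50 is the concentration that inhibits growth by half. At the TGI there is no net growth.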 Where only a bound is given, the exact number is not on record here.

On to `CC(=O)/C=C/c1ccc(OCc2ccc(Cl)cc2)cc1`, for which the GI50 with ACHN renal was over 1000 µM; in the experiment with COLO 205 colon, 287 µM; with HCC-2998 colon it was 473 µM; in the experiment on M14 melanoma, 559 µM; in the experiment with MALME-3M melanoma, 330 µM; in the experiment on MCF7 breast, 644 µM. Also, the GI50 in the experiment with OVCAR-4 ovarian was 648 µM; in the experiment with SF-268 CNS, 670 µM; in the experiment with UO-31 renal, 556 µM. For the same compound, the TGI with ACHN renal, in the experiment on COLO 205 colon, in the experiment with HCC-2998 colon, with M14 melanoma, in the experiment with MALME-3M melanoma and with MCF7 breast was over 1000 µM each time. Also, the TGI in the experiment on OVCAR-4 ovarian, with SF-268 CNS and with UO-31 renal was over 1000 µM each time.
For the compound `CN(CCCCCl)P(=O)(OCc1ccc([N+](=O)[O-])o1)OCC1OC(n2cnc([N+](=O)[O-])c2N)C(O)C1O` (configuration not stated), the GI50 in the experiment on ACHN renal was over 100 µM; in the experiment with COLO 205 colon it was over 100 µM; in the experiment on HCC-2998 colon, over 100 µM; in the experiment on K-562 leukemia, over 100 µM; in the experiment on MALME-3M melanoma, over 100 µM; in the experiment with MCF7 breast, 54.8 µM. For the same compound, the GI50 in the experiment on OVCAR-4 ovarian, in the experiment on SF-268 CNS and in the experiment on UO-31 renal was over 100 µM throughout. In addition, the TGI with ACHN renal, in the experiment with COLO 205 colon, with HCC-2998 colon, with K-562 leukemia, in the experiment on MALME-3M melanoma and in the experiment with MCF7 breast was over 100 µM throughout. The TGI in the experiment on OVCAR-4 ovarian, in the experiment with SF-268 CNS and in the experiment with UO-31 renal was over 100 µM throughout.
On to `O=[N+]([O-])c1cc([N+](=O)[O-])c(Cl)cc1Cl`, for which the GI50 is 1.62 µM with ACHN renal; 1.77 µM in the experiment with COLO 205 colon; 0.249 µM with K-562 leukemia; 1.73 µM in the experiment with M14 melanoma; 2.05 µM in the experiment with MALME-3M melanoma; 1.67 µM with MCF7 breast. The GI50 with OVCAR-4 ovarian was 1.81 µM; with SF-268 CNS it was 1.64 µM; in the experiment with UO-31 renal it was 0.34 µM. The TGI with ACHN renal is 3.29 µM; with COLO 205 colon it was 3.65 µM; in the experiment with K-562 leukemia, 0.642 µM; in the experiment on M14 melanoma, 3.59 µM; with MALME-3M melanoma, 4.27 µM; in the experiment on MCF7 breast, 4.23 µM. For the same compound, the TGI with OVCAR-4 ovarian stood at 3.23 µM; in the experiment on SF-268 CNS, 3.13 µM; in the experiment on UO-31 renal, 1.48 µM.
In the case of `CN1CCN(c2nc(-c3csc(-c4cccs4)n3)cc3ccccc23)CC1`, the GI50 with ACHN renal is 1.8 µM; in the experiment on HCC-2998 colon, 1.72 µM; in the experiment on K-562 leukemia, 2.16 µM; in the experiment with M14 melanoma it was 1.87 µM; in the experiment on MALME-3M melanoma, 1.65 µM; in the experiment with MCF7 breast it was 1.63 µM. Besides, the GI50 in the experiment on OVCAR-4 ovarian was 2.18 µM; in the experiment on SF-268 CNS, 1.82 µM; in the experiment with UO-31 renal it was 1.66 µM. Moreover, the TGI came out at 3.25 µM in the experiment on ACHN renal; 3.4 µM in the experiment on HCC-2998 colon; 4.92 µM in the experiment on K-562 leukemia; 3.71 µM in the experiment on M14 melanoma; 3.12 µM in the experiment with MALME-3M melanoma; 3.2 µM in the experiment with MCF7 breast. Also, the TGI with OVCAR-4 ovarian came out at 4.73 µM; in the experiment with SF-268 CNS, 3.6 µM; in the experiment with UO-31 renal, 3.17 µM.
Take `CCC(C)C(=O)OCC(=O)c1ccc(-c2ccccc2)cc1` (configuration not stated): the TGI in the experiment with ACHN renal, in the experiment with COLO 205 colon, in the experiment on HCC-2998 colon, with K-562 leukemia, in the experiment on M14 melanoma and in the experiment with MALME-3M melanoma was over 100 µM throughout. Besides, the TGI in the experiment on MCF7 breast, in the experiment on SF-268 CNS and in the experiment with UO-31 renal was over 100 µM throughout.
As for `NC(CSSCC(N)C(=O)O)C(=O)O` (configuration not stated), the GI50 in the experiment with ACHN renal, in the experiment with COLO 205 colon, in the experiment with K-562 leukemia, in the experiment on M14 melanoma, with MALME-3M melanoma and in the experiment on MCF7 breast was over 100 µM throughout. For the same compound, the GI50 in the experiment on OVCAR-4 ovarian, with SF-268 CNS and in the experiment with UO-31 renal was over 100 µM each time. For the same compound, the TGI with ACHN renal, in the experiment on COLO 205 colon, in the experiment on K-562 leukemia, with M14 melanoma, with MALME-3M melanoma and in the experiment with MCF7 breast was over 100 µM in each case. For the same compound, the TGI in the experiment with OVCAR-4 ovarian, in the experiment with SF-268 CNS and in the experiment with UO-31 renal was over 100 µM throughout.
Take `COc1cc2c(c(OC)c1OC)-c1ccc(N=NC(N)=S)c(=O)cc1[C@@H](NC(C)=O)CC2`: the GI50 in the experiment with ACHN renal is 5.08 µM; in the experiment on COLO 205 colon it was 0.26 µM; with HCC-2998 colon it was 0.311 µM; in the experiment with K-562 leukemia, 0.425 µM; in the experiment on MCF7 breast it was 0.364 µM; in the experiment on OVCAR-4 ovarian, 1.43 µM. The values for the GI50 in the experiment with SF-268 CNS and with UO-31 renal were 0.716 µM and 6.92 µM, respectively. Further, the TGI in the experiment on ACHN renal is over 100 µM; in the experiment on COLO 205 colon it was 0.682 µM; in the experiment on HCC-2998 colon, 1.76 µM; in the experiment on K-562 leukemia, over 100 µM; in the experiment on MALME-3M melanoma, over 100 µM; in the experiment with MCF7 breast, over 100 µM. Besides, the TGI with OVCAR-4 ovarian, in the experiment with SF-268 CNS and with UO-31 renal was over 100 µM in each case.
Take `CCOc1ccc2c(c1)c(CC(=O)O)cn2C`: the TGI in the experiment on ACHN renal, with COLO 205 colon, in the experiment on HCC-2998 colon, in the experiment with K-562 leukemia, with M14 melanoma and in the experiment with MALME-3M melanoma was over 100 µM in each case. Moreover, the TGI in the experiment with MCF7 breast, in the experiment with SF-268 CNS and in the experiment with UO-31 renal was over 100 µM throughout.
Turning to `COC(=O)C(C(=O)OC)C(Br)C(Br)C(Br)c1ccccc1` (configuration not stated), the GI50 in the experiment on ACHN renal is 2.8 µM; in the experiment with COLO 205 colon, 2.14 µM; in the experiment on HCC-2998 colon it was 21 µM; in the experiment on M14 melanoma it was 12.9 µM; with MALME-3M melanoma, 2.34 µM; in the experiment on MCF7 breast, 2.43 µM. Further, the GI50 in the experiment with OVCAR-4 ovarian is 4.33 µM; in the experiment with SF-268 CNS, 14.6 µM; in the experiment with UO-31 renal, 1.74 µM. Also, the TGI with ACHN renal turned out to be 7.16 µM; in the experiment on COLO 205 colon, 4.62 µM; in the experiment on HCC-2998 colon it was 37.8 µM; in the experiment with M14 melanoma, 27.5 µM; in the experiment on MALME-3M melanoma, 4.92 µM; with MCF7 breast, 9.68 µM. The TGI with OVCAR-4 ovarian amounted to 17.8 µM; in the experiment on SF-268 CNS, 29.6 µM; with UO-31 renal, 3.42 µM.
For `O=C(CC1C=Cc2ccccc2N1C(=O)c1ccccc1)c1ccccc1` (configuration not stated), the TGI with ACHN renal is over 100 µM; in the experiment on COLO 205 colon, 42.5 µM; in the experiment with K-562 leukemia it was over 100 µM; in the experiment with M14 melanoma it was 65.6 µM; in the experiment with MALME-3M melanoma it was 61 µM; with MCF7 breast it was over 100 µM. The TGI in the experiment with OVCAR-4 ovarian, in the experiment on SF-268 CNS and with UO-31 renal was over 100 µM throughout.
